# Measurements: patent publication US11723589B2 (The General Hospital Corporation, priority 2010, dated 2023)
# “And” between values parts separate entries of the source, which are not always exact repeats. Equal values may be shown once.
# Tests used:
# rats [1] = assay: D-MPH versus L-MPH reversal of isoflurane anesthesia, loss of righting reflex (LORR); assay type: in vivo, rat; settings: for rats with restoration of consciousness: intravenous dose of 0.5 mg/kg; for rats with restoration of consciousness / rate of % recovery of consciousness / time to emergence, D-MPH compared with L-MPH: isoflurane anesthesia; for reversal of isoflurane-induced general anesthesia: intravenous, rat animal model; for rate of % recovery of consciousness / time to emergence, D-MPH compared with L-MPH: FIG. 7
# Excerpt: Pure D-MPH (Focalin) is currently available in oral form for Attention Deficit Hyperactivity Disorder (ADHD), but it is not available for intravenous use.
# [2] = children treated with racemic methylphenidate; cited from earlier work
# mice [3] = settings: uninstrumented mice, rotating anesthetizing chamber; cited from earlier work
# Male Sprague-Dawley rats [4] = assay: Return of righting during continuous isoflurane general anesthesia; assay type: in vivo, rat
# Excerpt: Anesthetizing Protocol. Rats were anesthetized in an induction chamber with 2-3% isoflurane in oxygen prior to placement of a lateral tail vein intravenous catheter (24 gauge, 19 mm). A rectal temperature probe was inserted and the animal was placed in a cylindrical acrylic anesthetizing chamber. The chamber was custom-built and equipped with ports for anesthetic gas delivery, sampling, and scavenging, as well as intravenous drug administration. A heating pad was placed under the chamber to keep the animal warm, and the body temperature was kept between 36.5° C. and 37.4° C.
# The rat was positioned supine in the anesthetizing chamber and the inhaled concentration of isoflurane was initially fixed at 2.0% for 20 minutes, then reduced to 0.8% over 15-20 minutes, and then maintained at 0.8% for 40 minutes. If the rat made any purposeful movement, the isoflurane concentration was increased by 0.1% and maintained for another 40 minutes. This process was repeated until the final dose of isoflurane sufficient to maintain loss of righting reflex was established, and this dose was administered throughout the remainder of the experiment. This protocol was based on previously published methods described by Alkire et al.^4,11 After the final 40-minute equilibration period, normal saline (2 ml) was administered and the rectal temperature probe was removed. Five minutes later, methylphenidate was administered.
# Prism 4.03 (Graphpad Software, San Diego, Calif.) and Matlab (Mathworks, Natick, Mass.) were used for statistical analysis and where possible, results are reported in terms of 95% confidence intervals based on z-tests, t-tests or Mann-Whitney tests. […] For this computation the inventors assumed a binomial model as the sampling density or likelihood function for the propensity of animals in a given group to have return of the righting response. The inventors took as the prior density for each group the uniform density on the interval (0, 1) because it is uninformative. Because of the conjugacy between the prior and the likelihood the posterior density for each group is a beta density.^17 The posterior densities for the differences in the proportion of animals that had return of righting were then computed by using standard Matlab simulation procedures. Instead of p-values for the Bayesian analyses the inventors computed the posterior probability that the propensity to right was greater in on group compared to the other.
# rats [5] = settings: 3 mg/kg of droperidol; cited from earlier work
# mice [6] = settings: cited from earlier work
# Male Sprague-Dawley rats [7] = assay: Electroencephalogram recording and spectral analysis during continuous isoflurane; assay type: in vivo, rat; settings: droperidol 0.5 mg/kg IV; isoflurane 1.0%
# Experimental: Electroencephalogram electrode placement, recording, and spectral analysis. Extradural electroencephalogram electrodes were surgically implanted at least 7 days prior to recording. General anesthesia was induced with xylazine (5-10 mg/kg IP) and ketamine (50-100 mg/kg IP), and supplemented with isoflurane (1-2%). A microdrill was used to make four holes at the following stereotactic coordinates: A0L0, A6L3, A6L-3, and A10L2 relative to the lambda.^12 Polytetrafluoroethylene coated, 200 μm diameter stainless steel electrode wires (A-M Systems, Sequim, Wash.) were inserted and secured with small stainless steel screws, and permanently fixed with dental acrylic cement. Carprofen (5 mg/kg SC) was administered for analgesia on the day of surgery, as well as on post-operative days 1, and 2. The potential difference between electrodes A0L0 and A6L3, or between electrodes A0L0 and A6L-3 (whichever gave less motion artifact), was referenced to A10L2 and recorded using a QP511 Quad AC Amplifier System (Grass Instruments, West Warwick, R.I.) and a USB-6009 14-bit data acquisition board (National Instruments, Austin, Tex.). Data was filtered between 0.3-100 Hz. No line filter was used. The sampling rate was 512 Hz. After baseline recordings were taken for 10 minutes while awake, rats were anesthetized with isoflurane and placed in the anesthetizing chamber. […] Therefore the inventors performed the electroencephalogram experiments in the prone position with the isoflurane dose fixed at 1.0%. These modifications allowed us to minimize electroencephalogram motion artifacts without restraining the animals. After a minimum isoflurane exposure of 40 minutes, normal saline was administered and the temperature probe was removed. Five minutes later, methylphenidate was administered. Spectral analysis was performed using Matlab 7.11 (Mathworks, Natick, Mass.) and the Chronux software (Cold Spring Harbor, N.Y.). 13 Spectrograms were calculated using sliding windows of 2 sec duration stepped through 0.05 sec. For each window, multitaper spectrum estimation was performed using 5 tapers. […]
structure (smiles),measurement,setting,value
"COC(=O)[C@@H](c1ccccc1)[C@@H]1CCCCN1 [L-MPH, L-threo-methylphenidate]",rats with restoration of consciousness,rats [1],33%
same,reversal of isoflurane-induced general anesthesia,rats [1],rapidly reversed isoflurane-induced general anesthesia
"COC(=O)C(c1ccccc1)C1CCCCN1 [D-MPH, D-threo-methylphenidate]",increase in plasma levels,[2],5 fold
same,rats with restoration of consciousness,rats [1],83%
same,reversal of isoflurane-induced general anesthesia,rats [1],rapidly reversed isoflurane-induced general anesthesia
same,"rate of % recovery of consciousness / time to emergence, D-MPH compared with L-MPH",rats [1],at a quicker rate than L-MPH
same,"rate of % recovery of consciousness / time to emergence, D-MPH compared with L-MPH",rats [1]; listed as D-MGH,faster
FC(F)OC(Cl)C(F)(F)F (stereo not shown) [isoflurane],dose for loss of righting,mice [3],0.81%
same,dose of isoflurane sufficient to maintain loss of righting,"Male Sprague-Dawley rats [4]; inhaled, rats, mean±SD",0.9%±0.1% and 0.9%
O=C(CCCN1CC=C(n2c(=O)[nH]c3ccccc32)CC1)c1ccc(F)cc1 [droperidol],effect on isoflurane potency,rats [5],no effect on isoflurane potency
same,EC50 for loss of righting,mice [6],40 mg/kg
same,purposeful movement in response to droperidol,"Male Sprague-Dawley rats [4]; droperidol 0.5 mg/kg IV, continuous isoflurane, n=6",None of the animals exhibited purposeful movement
same,EEG pattern change after droperidol,Male Sprague-Dawley rats [7],no appreciable change
